pIC50: −log10 of the molar value. “And” between values parts separate entries of the source, which are not always exact repeats. Identical values can stand only once. Counter-ions that a name gives are not always drawn. Like-named read-outs stand apart in the source and are kept apart here.
How the values were obtained:
[1] = test system: secretion of ApoB by HepG2 cells; experiment: ApoB secretion inhibition assay in HepG2 cells (ApoB ELISA); assay type: cell-based, human; conditions: Homo sapiens
Protocol: The ability of the compounds of the present invention to inhibit the secretion of ApoB can be determined using the following cell-based assay, which measures the secretion of ApoB by HepG2 cells. ApoB has two possible metabolic fates: entrance into the lipoprotein assembly pathway within the lumen of the endoplasmic reticulum (ER), or degradation in the cytoplasm by the ubiquitin-dependent proteasome. The destiny of ApoB is determined by the relative availability of individual lipids, which is controlled by MTP (Davis, Biochim. Biophys. Acta, 1999, 1440, 1-31).
HepG2 cells (ATCC, HB-8065) are seeded in 96-well plates in DMEM with 10% FBS+pen/strep at a density of 1×10^5 cells/well (100 μl /well). Twenty-four hours after seeding, the plate is aspirated and the media changed to DMEM with 1% BSA and pen/strep, and the cells are serum-starved for 24 hours. After 24 hour serum-starvation, the plate is aspirated again and the cells are then treated for 24 hours with or without compound in DMEM with 1% BSA, 0.3 mM OA (OA complexed to BSA at a 2:1 ratio) and pen/strep. The final concentration of DMSO in the assay (from compound and control) is 0.1%. After 24 hour treatment, conditioned media is collected in an empty 96-well plate.
Cellular viability is measured using the cell permeable dye, AlamarBlue™. This dye undergoes electron reduction in viable cells but not dead cells. The reduced dye product gives a fluorescent signal which can be monitored with a fluorescence plate reader (excitation 545 nm and emission 575 nm). The amount of fluorescence generated in a given well is proportional to the number of viable cells. After collection, the 96-well plate is re-fed with 100 μl media (DMEM with 10% FBS) and 10 μl Alamar Blue™ per well, incubated for 2 hours and then read in a fluorescence plate reader.
ApoB secretion from HepG2 cells is quantitated by testing the conditioned media at […] using an ApoB ELISA kit (ALerCHEK) according to the manufacturer's instructions. The ELISA assay for ApoB is performed as follows: a polyclonal antibody against human ApoB (Chemicon) is diluted 1:1000 in carbonate-bicarbonate buffer and 100 μl are added to each well of a 96-well plate (NUNC). After 5 hours incubation at room temperature, the antibody solution is removed and wells are washed four times with PBS/0.05% TweenD 20 (Cayman Chemical Co.). Non-specific sites on the plastic plate are blocked by incubating wells for 1 to 1.5 hours in a solution of 0.5% BSA and 0.1% TweenD 20 made in PBS. One hundred microliters of a 1:20 dilution of growth medium from the HepG2 cells (made in 0.004% TweenD 20/1% BSA in PBS) is added to each well and incubated for 3 hours at room temperature. Wells are aspirated and washed four times (0.05% TweenD 20 in PBS) prior to adding 100 μl of a 1:1000 dilution (5 μg/ml) of the secondary antibody, mouse anti-human ApoB (Chemicon). After 2 hours incubation at room temperature, this solution is aspirated and the wells are again washed 4 times as above. One hundred microliters of peroxidase-conjugated affinity purified goat anti-mouse IgG (H+L) (Jackson ImmunoResearch Laboratories) (1:10,000 dilution in PBS/1% BSA/0.1% TweenD 20) is then added to each well and incubated for 1 hour at room temperature. After aspirating, the wells are washed 4 times as above and 50 μl of 1-step Ultra TMB ELISA reagent (Pierce) is added to each well and incubated for 5 minutes. The reaction is stopped by the addition of 50 μl of 2 NH2SO4 and absorbance of each well is read at 450 nm.

MTP = MTP (Homo sapiens, UniProt P55157); experiment: In vitro inhibition of MTP, triacylglycerol transfer assay with donor and acceptor liposomes (fluorescence); assay type: biochemical
Sequence of MTP (P55157 19-894, species assumed): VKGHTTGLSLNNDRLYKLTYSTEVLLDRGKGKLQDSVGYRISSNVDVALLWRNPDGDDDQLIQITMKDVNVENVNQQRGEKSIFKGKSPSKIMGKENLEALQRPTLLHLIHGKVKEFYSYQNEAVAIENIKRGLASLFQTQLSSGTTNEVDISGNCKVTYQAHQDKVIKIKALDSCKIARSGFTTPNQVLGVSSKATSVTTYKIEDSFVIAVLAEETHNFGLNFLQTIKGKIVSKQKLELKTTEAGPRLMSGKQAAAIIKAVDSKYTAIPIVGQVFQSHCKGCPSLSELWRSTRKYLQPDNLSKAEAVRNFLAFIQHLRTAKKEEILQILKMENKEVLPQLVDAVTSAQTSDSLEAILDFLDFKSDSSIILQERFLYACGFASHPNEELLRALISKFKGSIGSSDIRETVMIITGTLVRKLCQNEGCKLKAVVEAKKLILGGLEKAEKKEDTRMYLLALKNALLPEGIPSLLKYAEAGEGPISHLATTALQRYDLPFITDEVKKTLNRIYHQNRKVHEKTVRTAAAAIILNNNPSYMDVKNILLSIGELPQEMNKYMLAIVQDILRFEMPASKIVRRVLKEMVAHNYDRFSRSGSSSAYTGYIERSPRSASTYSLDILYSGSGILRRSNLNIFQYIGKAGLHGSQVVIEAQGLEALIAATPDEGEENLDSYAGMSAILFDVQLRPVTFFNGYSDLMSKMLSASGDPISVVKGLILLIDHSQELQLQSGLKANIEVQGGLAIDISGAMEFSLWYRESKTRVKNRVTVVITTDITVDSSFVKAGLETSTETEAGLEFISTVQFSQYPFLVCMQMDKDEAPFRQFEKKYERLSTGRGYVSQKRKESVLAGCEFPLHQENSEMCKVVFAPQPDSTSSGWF
Sequence of MTP (P07237 18-508 partner, species assumed): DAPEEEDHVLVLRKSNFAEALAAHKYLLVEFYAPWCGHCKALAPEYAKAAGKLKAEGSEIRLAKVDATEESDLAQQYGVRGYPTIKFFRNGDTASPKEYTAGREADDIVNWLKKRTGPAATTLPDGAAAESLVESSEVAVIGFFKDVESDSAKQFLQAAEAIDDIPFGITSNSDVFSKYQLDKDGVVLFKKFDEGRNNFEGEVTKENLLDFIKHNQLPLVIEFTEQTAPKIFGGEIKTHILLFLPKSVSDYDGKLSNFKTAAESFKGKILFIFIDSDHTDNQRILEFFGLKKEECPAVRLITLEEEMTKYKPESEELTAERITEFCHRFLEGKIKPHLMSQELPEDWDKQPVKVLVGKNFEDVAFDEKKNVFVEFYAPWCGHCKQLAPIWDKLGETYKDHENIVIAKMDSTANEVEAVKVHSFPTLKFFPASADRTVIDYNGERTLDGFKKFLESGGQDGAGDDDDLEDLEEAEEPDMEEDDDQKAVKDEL
Protocol: This assay is commercially available (Cat. #D400, Chylos Inc., New York). Liposomes are pipetted in 5 μl aliquots into the wells of a black fluorescence microtiter plate, followed by addition of 5 μl of water and an incubation of 2-5 min to allow the samples to equilibrate to rt. Next, 5 μl of compound dissolved in DMSO is added to the vesicles. The reaction is initated by the addition of 5 μl MTP, followed by incubation for 30 min at room temperature. […] Time of incubation can be increased to measure low activity in different samples. In such situations, samples are prepared just prior to measuring fluorescence units. For this purpose, isopropanol is added to substrate vesicles about 5 min prior to fluorescence measurement as the fluorescence readings in isopropanol decrease with time.

[2] = HepG2, Table 6, assay of Example 2, read-out: IC50 ApoB Assay
[3] = Table 6, assay of Example 3, read-out: IC50 Enzyme Assay

pIC50 ([1]; HepG2, Tables 2-5, second symbol of the cell, read-out: IC50 Apo B Secretion Assay (Example 2))	pIC50 (MTP; Tables 2-5, first symbol of the cell, read-out: IC50 Tri-acylglycerol (TAG) Transfer Assay (Example 3))	pIC50 [1, 2]	pIC50 (MTP; [3])	Compound
> 7.00	> 7.00	–	–	CN(Cc1ccc(F)cc1)C(=O)[C@@H](NC(=O)c1nc2ccc(NC(=O)c3ccccc3-c3ccc(C(C)(C)C)cc3)cc2s1)c1ccccc1 (single isomer, unassigned)
–	–	5.22	< 6.00	CN(Cc1ccc(F)cc1)C(=O)[C@@H](NC(=O)c1ccc2nc(NC(=O)c3ccccc3C3CCNCC3)ccc2c1)c1ccccc1 [Compound 1, (S)—N-(2-((4-fluorobenzyl)(methyl)amino)-2-oxo-1-phenylethyl)-2-(2-(piperidin-4-yl)benzamido)quinoline-6-carboxamide hydrochloride]
–	–	5.46	6.28	CN(Cc1ccc(F)cc1)C(=O)[C@@H](NC(=O)c1ccc2nc(NC(=O)c3ccccc3C3CCNC3)ccc2c1)c1ccccc1 (stereo partly drawn) [Compound 2, N—((S)-2-((4-fluorobenzyl)(methyl)amino)-2-oxo-1-phenylethyl)-2-(2-(pyrrolidin-3-yl)benzamido)quinoline-6-carboxamide hydrochloride]
–	–	8.10	7.96	CN(Cc1ccc(F)cc1)C(=O)[C@@H](NC(=O)c1ccc2nc(NC(=O)c3ccccc3-c3cn4ccsc4n3)ccc2c1)c1ccccc1 [Compound 3, (S)—N-(2-((4-fluorobenzyl)(methyl)amino)-2-oxo-1-phenylethyl)-2-(2-(imidazo[2,1-b]thiazol-6-yl)benzamido)quinoline-6-carboxamide]
–	–	8.52	7.86 and 8.52	CN(Cc1ccc(F)cc1)C(=O)[C@@H](NC(=O)c1nc2ccc(NC(=O)c3ccccc3-c3ccc(C(C)(C)C)cc3)cc2s1)c1ccccc1 [Compound 4, (S)-6-(4′-tert-butylbiphenyl-2-ylcarboxamido)-N-(2-((4-fluorobenzyl)(methyl)amino)-2-oxo-1-phenylethyl)benzo[d]thiazole-2-carboxamide]
–	–	8.19	8.02	CCCCN(C)C(=O)[C@@H](NC(=O)c1nc2ccc(NC(=O)c3ccccc3-c3ccc(C(C)(C)C)cc3)cc2s1)c1ccccc1 [Compound 5]
–	–	9.00	8.59	CC(C)(C)c1ccc(-c2ccccc2C(=O)Nc2ccc3nc(C(=O)N[C@H](C(=O)N4CCCC4)c4ccccc4)sc3c2)cc1 [Compound 7]
–	–	8.51	8.08	CCCCCNC(=O)[C@@H](NC(=O)c1nc2ccc(NC(=O)c3ccccc3-c3ccc(C(C)(C)C)cc3)cc2s1)c1ccccc1 [Compound 8]
–	–	7.27	7.48	CN(Cc1ccc(F)cc1)C(=O)[C@@H](NC(=O)C12CCC(CNC(=O)c3ccccc3-c3ccc(C(C)(C)C)cc3)(CC1)CC2)c1ccccc1 [Compound 10, (S)-4-((4′-tert-butylbiphenyl-2-ylcarboxamido)methyl)-N-(2-((4-fluorobenzyl)(methyl)amino)-2-oxo-1-phenylethyl)bicyclo[2.2.2]octane-1-carboxamide]
–	–	7.39	8.70	CC(C)(C)c1ccc(-c2ccccc2C(=O)Nc2nc(-c3cccc(C(=O)N[C@H](C(=O)N4CCCC4)c4ccccc4)c3)cs2)cc1 [Compound 12, (S)-4′-tert-butyl-N-(4-(3-(2-oxo-1-phenyl-2-(pyrrolidin-1-yl)ethylcarbamoyl)phenyl)thiazol-2-yl)biphenyl-2-carboxamide]
–	–	8.06	8.28	CC(C)(C)c1ccc(-c2ccccc2C(=O)Nc2ccc3nc(C(=O)N[C@H](C(=O)N4CCC(F)(F)C4)c4ccccc4)sc3c2)cc1 [Compound 14]
–	–	7.63	7.82	CN(Cc1ccc(F)cc1)C(=O)[C@@H](NC(=O)c1nc2ccc(NC(=O)c3ccccc3-c3cn4ccsc4n3)cc2s1)c1ccccc1 [Compound 24, (S)—N-(2-((4-fluorobenzyl)(methyl)amino)-2-oxo-1-phenylethyl)-6-(2-(imidazo[2,1-b]thiazol-6-yl)benzamido)benzo[d]thiazole-2-carboxamide]
–	–	7.51	7.35	CN(Cc1ccc(F)cc1)C(=O)[C@@H](NC(=O)c1nc2ccc(NC(=O)c3ccccc3-n3cccc3)cc2s1)c1ccccc1 [Compound 30]
–	–	7.76	6.84	CN(Cc1ccc(F)cc1)C(=O)[C@@H](NC(=O)c1nc2ccc(NC(=O)c3ccccc3-c3ccc(C(F)(F)F)cc3)cc2s1)c1ccccc1 [Compound 32]
–	–	8.19	8.15	CN(Cc1ccc(F)cc1)C(=O)[C@@H](NC(=O)c1cn2cc(NC(=O)c3ccccc3-c3ccc(C(C)(C)C)cc3)ccc2n1)c1ccccc1 [Compound 33, (S)-6-(4′-tert-butylbiphenyl-2-ylcarboxamido)-N-(2-((4-fluorobenzyl)(methyl)amino)-2-oxo-1-phenylethyl)imidazo[1,2-a]pyridine-2-carboxamide]
–	–	8.17	8.24	CC(C)(C)c1ccc(-c2ccccc2C(=O)Nc2nc(-c3ccc(C(=O)N[C@H](C(=O)N4CCCC4)c4ccccc4)cc3)cs2)cc1 [Compound 36, (S)-4′-tert-butyl-N-(4-(4-(2-oxo-1-phenyl-2-(pyrrolidin-1-yl)ethylcarbamoyl)phenyl)thiazol-2-yl)biphenyl-2-carboxamide]
–	–	7.65	7.62	CN(Cc1ccc(F)cc1)C(=O)[C@@H](NC(=O)c1nc2ccc(NC(=O)c3ccccc3-c3csc(-c4ccccc4)n3)cc2s1)c1ccccc1 [Compound 38]
–	–	8.38	7.89	CN(Cc1ccc(F)cc1)C(=O)[C@@H](NC(=O)c1nc2ccc(NC(=O)c3ccccc3-c3cn4ccccc4n3)cc2s1)c1ccccc1 [Compound 40]
–	–	8.54	8.33	Cc1cccc(C(=O)Nc2ccc3nc(C(=O)N[C@H](C(=O)N(C)Cc4ccc(F)cc4)c4ccccc4)sc3c2)c1-c1ccc(C(C)(C)C)cc1 [Compound 41]
–	–	8.07	8.35	Cc1cccc(C(=O)Nc2nc(-c3cccc(C(=O)N[C@H](C(=O)N4CCCC4)c4ccccc4)c3)cs2)c1-c1ccc(C(C)(C)C)cc1 [Compound 42]
–	–	8.21	7.82 and 7.95	CC(C)c1ccc(-c2ccccc2C(=O)Nc2ccc3nc(C(=O)N[C@H](C(=O)N(C)Cc4ccc(F)cc4)c4ccccc4)sc3c2)cc1 [Compound 54, (S)—N-(2-((4-fluorobenzyl)(methyl)amino)-2-oxo-1-phenylethyl)-6-(4′-isopropylbiphenyl-2-ylcarboxamido)benzo[d]thiazole-2-carboxamide]
–	–	8.17	8.09 and 8.41	CC(C)c1ccc(-c2ccccc2C(=O)Nc2ccc3nc(C(=O)N[C@H](C(=O)N4CCCC4)c4ccccc4)sc3c2)cc1 [Compound 55, (S)-6-(4′-isopropylbiphenyl-2-ylcarboxamido)-N-(2-oxo-1-phenyl-2-(pyrrolidin-1-yl)ethyl)benzo[d]thiazole-2-carboxamide]

Reference: patent US20080249130A1, “Gut microsomal triglyceride transport protein inhibitors” (Sirtris Pharmaceuticals, Inc., priority 2007, published 2008)
